The subject of this experiment is cells infected with the SF1 gene or the SF1+MC2R+MRAP genes. Kind of experiment: ACTH stimulation of hiSCs: cortisol and aldosterone secretion. The format is cell-based, human. The settings on record: ACTH 0 nM, 10 nM.

Take “adrenocorticotropic hormone (SYSMEHFRWGKPVGKKRRPVKVYPNGAEDESAEAFPLEF; Corticotropin; UniProt P01189 138-176, looked up) [ACTH, hormone secreted by the anterior pituitary gland, used to stimulate the cells]”: under “1 uM (FIG. 15B)”, the production/secretion of cortisol entry is recorded as “increasing with administration of increasing ACTH dosage”. Further, for the setting “1 uM (FIG. 15C)”, the production/secretion of aldosterone result was “increasing with administration of increasing ACTH dosage”.
